These results are taken from US7998949B2, “Bicyclic heterocycles, drugs containing said compounds, use thereof, and method for production thereof” (Boehringer Ingelheim International GmbH, priority 2007, dated 2011).

The target in this assay is T1, human EGF-R (Homo sapiens, UniProt P00533).
T1 construct: expressed in transfected cells
Put plainly: Inhibition of the EGFR-dependent proliferation (EGF-stimulated cell line expressing human EGF-R, Cell Titer 96 assay). It is filed as cell-based. The conditions noted are these: murine haematopoietic cell line expressing functional human EGF-R; 20 ng/ml human EGF; 48 hours at 37° C. As to the method:
A murine haematopoietic cell line is genetically modified so as to express functional human EGF-R. The proliferation of this cell line can therefore be stimulated by EGF.
The test is carried out as follows: • The cells are cultivated in RPMI/1640 medium. The proliferation is stimulated with 20 ng/ml of human EGF (Promega). To investigate the inhibitory activity of the compounds according to the invention these compounds are dissolved in 100% dimethylsulphoxide (DMSO) and added to the cultures in various dilutions, the maximum DMSO concentration being 1%. The cultures are incubated for 48 hours at 37° C.
In order to determine the inhibitory activity of the compounds according to the invention the relative cell number is measured in O.D. units using the Cell Titer 96™ AQueous Non-Radioactive Cell Proliferation Assay (Promega). The relative cell number is calculated as a percentage of the control and the concentration of active substance which inhibits the proliferation of the cells by 50% (IC50) is derived therefrom.

T1 sequence (P00533 25-1210): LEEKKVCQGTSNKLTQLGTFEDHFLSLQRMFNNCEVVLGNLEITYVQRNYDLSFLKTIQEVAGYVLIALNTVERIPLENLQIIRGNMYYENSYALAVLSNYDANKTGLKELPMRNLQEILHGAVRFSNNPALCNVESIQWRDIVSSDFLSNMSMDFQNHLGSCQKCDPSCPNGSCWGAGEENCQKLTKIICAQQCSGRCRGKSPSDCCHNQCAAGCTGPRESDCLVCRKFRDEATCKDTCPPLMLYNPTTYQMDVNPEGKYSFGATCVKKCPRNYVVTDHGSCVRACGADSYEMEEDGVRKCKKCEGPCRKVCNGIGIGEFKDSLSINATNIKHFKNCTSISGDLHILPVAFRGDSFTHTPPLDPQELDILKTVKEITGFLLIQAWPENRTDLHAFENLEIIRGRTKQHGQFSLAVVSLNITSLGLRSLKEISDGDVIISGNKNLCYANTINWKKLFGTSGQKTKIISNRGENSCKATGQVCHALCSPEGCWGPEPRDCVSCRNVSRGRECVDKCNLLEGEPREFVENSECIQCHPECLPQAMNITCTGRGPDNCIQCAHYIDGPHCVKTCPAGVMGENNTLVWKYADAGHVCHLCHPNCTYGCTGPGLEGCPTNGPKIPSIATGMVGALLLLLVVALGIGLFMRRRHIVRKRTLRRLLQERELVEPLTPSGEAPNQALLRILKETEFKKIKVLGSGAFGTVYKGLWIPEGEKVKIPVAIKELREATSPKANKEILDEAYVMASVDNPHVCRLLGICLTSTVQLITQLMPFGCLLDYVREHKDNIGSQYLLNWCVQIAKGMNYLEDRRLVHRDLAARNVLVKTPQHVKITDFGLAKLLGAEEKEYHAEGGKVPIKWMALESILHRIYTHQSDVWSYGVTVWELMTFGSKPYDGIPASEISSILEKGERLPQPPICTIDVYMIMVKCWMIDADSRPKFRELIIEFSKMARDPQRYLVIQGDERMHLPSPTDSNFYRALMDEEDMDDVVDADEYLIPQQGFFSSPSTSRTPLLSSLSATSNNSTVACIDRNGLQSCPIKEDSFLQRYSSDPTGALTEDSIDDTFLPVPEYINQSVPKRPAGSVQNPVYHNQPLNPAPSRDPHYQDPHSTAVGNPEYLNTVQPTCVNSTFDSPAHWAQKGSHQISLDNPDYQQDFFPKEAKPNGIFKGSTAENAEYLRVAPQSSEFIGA

Compound `COc1cc2ncnc(Nc3cccc(Cl)c3F)c2cc1O[C@H]1CC[C@H](N2CCOCC2)CC1` [1 (trans compound), 4-[(3-chloro-2-fluoro-phenyl)amino]-6-[trans-4-(morpholin-4-yl)-cyclohexyloxy]-7-methoxy-quinazoline] had an IC50 of 1 nM. Consider `COc1cc2ncnc(Nc3cccc(Cl)c3F)c2cc1O[C@H]1CC[C@H](N2CC[C@@H](O)C2)CC1` [1(1) (trans compound), 4-[(3-chloro-2-fluoro-phenyl)amino]-6-[(R)-trans-4-(3-hydroxy-pyrrolidin-1-yl)-cyclohexyloxy]-7-methoxy-quinazoline], for which the IC50 came out at 1 nM. Then `COc1cc2ncnc(Nc3cccc(Cl)c3F)c2cc1O[C@H]1CC[C@H](N2CCNC(=O)C2)CC1` [1(3) (trans compound), 4-[(3-chloro-2-fluoro-phenyl)amino]-6-[trans-4-(3-oxo-piperazin-1-yl)-cyclohexyloxy]-7-methoxy-quinazoline], with 1 nM; and `COc1cc2ncnc(Nc3cccc(Cl)c3F)c2cc1O[C@H]1CC[C@H](N2CCC[C@H]2C(N)=O)CC1` [1(5) (trans compound), 4-[(3-chloro-2-fluoro-phenyl)amino]-6-{(S)-trans-4-[2-(aminocarbonyl)-pyrrolidin-1-yl]-cyclohexyloxy]-7-methoxy-quinazoline], with 1 nM. Then `COc1cc2ncnc(Nc3cccc(Cl)c3F)c2cc1O[C@H]1CC[C@H](N2CCN(C)C(=O)C2)CC1` [(36)], with 1 nM. Then `COc1cc2ncnc(Nc3cccc(Cl)c3F)c2cc1O[C@H]1CC[C@H](N2CCC(C#N)CC2)CC1` [(44)], with 1 nM.

In general, IC50 refers to the concentration that gives 50% inhibition. High values mean lower potency, low ones higher potency.
